Assay results from patent US10538554B2, “Peptides and uses therefor as antiviral agents” (priority 2015, dated 2020).
Bridge positions count the residues as written; N and C are the ends. Square brackets hold non-standard residues; d marks the D form. Peptide text beside a SMILES is read from it.

System: H1N1 A/PR/8-MC/1934
Parameters: species or system BALB/c female mice
Conditions: mouse, in vivo

## CC[C@@H](C)[C@H]1NC(=O)[C@@H](Cc2ccccc2)NC(=O)[C@@H]([C@H](C)O)NC(=O)[C@@H](Cc2ccccc2)NC(=O)[C@@H](Cc2c[nH]c3ccccc23)NC(=O)[C@@H]([C@H](C)O)NC(=O)[C@H](NC(=O)[C@H](CCCCN)NC(=O)[C@H](CCCCN)NC(=O)[C@H](CCCNC(=N)N)NC(=O)[C@@H](N)CCCNC(=N)N)CSSC[C@H](C(=O)O)NC(=O)[C@@H](CC(N)=O)NC1=O [PSP IV A17, H-RRKKctwftfinc-OH] (H-RRKK[dC][dT][dW][dF][dT][dF][dI][dN][dC]-OH; disulfide 5-13)
  morbidity of influenza infected mice: completely inhibited the morbidity
